From ChEMBL document CHEMBL1152560, “Substituted 2-arylbenzothiazoles as kinase inhibitors: hit-to-lead optimization” (Bioorg Med Chem, 2009) come the findings set out here.

Assay [1] has as its target Macrophage colony-stimulating factor 1 receptor (Homo sapiens) (UniProt P07333). As to the kind of experiment: Residual activity of CSF1R at 10 uM by microplate scintillation counting.
Assay [2] concerns the target T1, Beta-adrenergic receptor kinase 1 (Homo sapiens) (UniProt P25098).
T1 sequence (whole entry): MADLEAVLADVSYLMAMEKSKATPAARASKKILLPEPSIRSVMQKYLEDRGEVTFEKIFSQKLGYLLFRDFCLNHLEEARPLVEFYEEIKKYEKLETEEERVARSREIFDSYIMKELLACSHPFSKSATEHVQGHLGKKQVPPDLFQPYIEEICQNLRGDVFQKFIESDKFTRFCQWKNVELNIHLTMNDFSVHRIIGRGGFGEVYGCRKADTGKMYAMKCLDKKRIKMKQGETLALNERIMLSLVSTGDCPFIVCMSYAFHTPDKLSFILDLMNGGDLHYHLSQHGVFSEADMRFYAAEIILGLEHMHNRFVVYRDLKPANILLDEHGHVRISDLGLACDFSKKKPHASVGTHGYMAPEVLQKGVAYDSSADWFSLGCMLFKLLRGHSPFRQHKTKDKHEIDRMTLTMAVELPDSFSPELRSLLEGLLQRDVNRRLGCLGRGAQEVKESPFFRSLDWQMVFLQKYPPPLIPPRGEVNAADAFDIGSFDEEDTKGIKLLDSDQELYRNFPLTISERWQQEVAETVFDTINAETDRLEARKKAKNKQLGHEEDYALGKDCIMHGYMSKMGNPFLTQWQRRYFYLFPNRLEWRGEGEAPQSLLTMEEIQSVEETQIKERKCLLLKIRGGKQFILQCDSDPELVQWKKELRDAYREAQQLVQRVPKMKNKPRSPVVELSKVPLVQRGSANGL
Briefly: Residual activity of GRK2 at 0.1 uM by microplate scintillation counting.

Assay [3] deals with Serine/threonine-protein kinase PAK 6 (Homo sapiens) (UniProt Q9NQU5). Briefly: Residual activity of PAK6 at 0.1 uM by microplate scintillation counting.
Assay [4] addresses Mitogen-activated protein kinase kinase kinase 14 (Homo sapiens) (UniProt Q99558). Briefly: Residual activity of NIK at 1 uM by microplate scintillation counting.
The nature of assay [5]: Residual activity of PKA at 1 uM by microplate scintillation counting.
In assay [6] the target is T2, Protein kinase C iota type (Homo sapiens) (UniProt P41743).
T2 sequence (whole entry): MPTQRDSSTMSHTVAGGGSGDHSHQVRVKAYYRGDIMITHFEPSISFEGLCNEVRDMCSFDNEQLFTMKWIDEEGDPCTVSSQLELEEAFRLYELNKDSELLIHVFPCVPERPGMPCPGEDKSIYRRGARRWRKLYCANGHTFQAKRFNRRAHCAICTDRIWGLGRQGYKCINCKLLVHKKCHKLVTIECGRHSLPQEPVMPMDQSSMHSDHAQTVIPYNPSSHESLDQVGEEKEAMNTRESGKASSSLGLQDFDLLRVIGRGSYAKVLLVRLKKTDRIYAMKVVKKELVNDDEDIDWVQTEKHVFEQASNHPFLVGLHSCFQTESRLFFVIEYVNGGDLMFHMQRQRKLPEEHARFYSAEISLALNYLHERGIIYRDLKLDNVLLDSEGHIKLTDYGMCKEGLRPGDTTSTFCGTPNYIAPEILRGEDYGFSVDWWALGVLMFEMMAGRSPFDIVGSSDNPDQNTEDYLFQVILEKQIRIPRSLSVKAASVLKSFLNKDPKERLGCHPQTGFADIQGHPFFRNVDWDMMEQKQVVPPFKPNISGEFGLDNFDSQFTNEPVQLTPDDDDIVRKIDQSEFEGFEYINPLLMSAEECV
As to the kind of experiment: Residual activity of PKCiota at 10 uM by microplate scintillation counting.

Assay [7] has as its target Casein kinase I isoform alpha (Homo sapiens) (UniProt P48729). Briefly: Residual activity of CK1alpha1 at 1 uM by microplate scintillation counting.
The target in assay [8] is T3, G protein-coupled receptor kinase 3 (Homo sapiens) (UniProt P35626).
T3 sequence (whole entry): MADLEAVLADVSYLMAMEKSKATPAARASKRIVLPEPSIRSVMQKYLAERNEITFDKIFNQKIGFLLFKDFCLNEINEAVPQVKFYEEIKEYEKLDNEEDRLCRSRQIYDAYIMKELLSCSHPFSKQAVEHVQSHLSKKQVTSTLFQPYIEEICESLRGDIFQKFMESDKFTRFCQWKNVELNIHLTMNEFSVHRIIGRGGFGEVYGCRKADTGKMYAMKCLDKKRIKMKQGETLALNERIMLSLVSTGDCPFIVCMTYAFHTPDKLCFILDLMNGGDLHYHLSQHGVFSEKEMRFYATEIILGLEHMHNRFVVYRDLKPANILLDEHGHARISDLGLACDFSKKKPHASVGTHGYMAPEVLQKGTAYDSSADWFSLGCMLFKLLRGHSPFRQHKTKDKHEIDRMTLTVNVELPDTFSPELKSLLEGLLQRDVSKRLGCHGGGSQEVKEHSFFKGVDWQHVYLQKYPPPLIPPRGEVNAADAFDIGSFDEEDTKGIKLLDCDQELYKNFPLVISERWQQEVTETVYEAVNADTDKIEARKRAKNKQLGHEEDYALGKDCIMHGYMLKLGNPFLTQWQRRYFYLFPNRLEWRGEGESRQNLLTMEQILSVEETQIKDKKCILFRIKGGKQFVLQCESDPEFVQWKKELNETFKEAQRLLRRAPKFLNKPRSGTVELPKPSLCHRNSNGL
Briefly: Residual activity of GRK3 at 1 uM by microplate scintillation counting.

The target in assay [9] is Dual specificity mitogen-activated protein kinase kinase 1 (Homo sapiens) (UniProt Q02750). As to the kind of experiment: Residual activity of wild type MEK1 at 0.1 uM by microplate scintillation counting.
For assay [10], the system named is Serine/threonine-protein kinase B-raf (Homo sapiens), P15056 [V600E]. As to the kind of experiment: Residual activity of B-RAF V600E mutant at 0.1 uM by microplate scintillation counting.
Sequence of Serine/threonine-protein kinase B-raf (Homo sapiens), P15056 [V600E] (P15056 whole entry V600E): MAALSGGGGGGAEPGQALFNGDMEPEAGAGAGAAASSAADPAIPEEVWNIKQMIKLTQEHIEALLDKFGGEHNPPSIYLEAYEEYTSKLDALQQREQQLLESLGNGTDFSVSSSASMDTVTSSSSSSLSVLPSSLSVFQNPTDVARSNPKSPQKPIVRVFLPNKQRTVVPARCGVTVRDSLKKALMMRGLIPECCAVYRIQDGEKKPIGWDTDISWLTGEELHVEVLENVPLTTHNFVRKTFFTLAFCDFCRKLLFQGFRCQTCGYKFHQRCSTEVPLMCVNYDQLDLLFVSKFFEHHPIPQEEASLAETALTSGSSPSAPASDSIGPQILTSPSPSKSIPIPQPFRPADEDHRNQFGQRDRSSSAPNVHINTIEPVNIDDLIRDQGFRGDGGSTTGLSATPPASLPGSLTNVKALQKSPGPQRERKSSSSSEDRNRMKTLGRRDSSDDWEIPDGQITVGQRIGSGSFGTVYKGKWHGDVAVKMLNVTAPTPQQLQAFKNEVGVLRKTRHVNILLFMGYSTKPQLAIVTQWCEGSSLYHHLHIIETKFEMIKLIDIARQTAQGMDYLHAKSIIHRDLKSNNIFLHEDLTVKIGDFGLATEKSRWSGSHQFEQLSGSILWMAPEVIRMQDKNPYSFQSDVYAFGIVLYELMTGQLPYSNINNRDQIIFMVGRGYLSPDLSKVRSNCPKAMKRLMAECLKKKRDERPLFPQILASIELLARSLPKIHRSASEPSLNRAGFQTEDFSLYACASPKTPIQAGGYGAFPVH

Sequence of Dual specificity mitogen-activated protein kinase kinase 1 (Homo sapiens) (Q02750 whole entry): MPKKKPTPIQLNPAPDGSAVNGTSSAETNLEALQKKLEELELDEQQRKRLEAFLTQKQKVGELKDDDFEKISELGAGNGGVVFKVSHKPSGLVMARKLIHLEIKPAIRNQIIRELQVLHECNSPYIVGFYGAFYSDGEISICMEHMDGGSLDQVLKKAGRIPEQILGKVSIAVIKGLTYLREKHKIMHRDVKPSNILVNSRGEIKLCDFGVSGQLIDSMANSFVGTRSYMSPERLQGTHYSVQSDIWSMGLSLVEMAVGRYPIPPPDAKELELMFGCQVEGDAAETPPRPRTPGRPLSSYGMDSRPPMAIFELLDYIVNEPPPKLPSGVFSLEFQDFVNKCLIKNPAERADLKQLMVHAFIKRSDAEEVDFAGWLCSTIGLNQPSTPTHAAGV
Sequence of Macrophage colony-stimulating factor 1 receptor (Homo sapiens) (P07333 whole entry): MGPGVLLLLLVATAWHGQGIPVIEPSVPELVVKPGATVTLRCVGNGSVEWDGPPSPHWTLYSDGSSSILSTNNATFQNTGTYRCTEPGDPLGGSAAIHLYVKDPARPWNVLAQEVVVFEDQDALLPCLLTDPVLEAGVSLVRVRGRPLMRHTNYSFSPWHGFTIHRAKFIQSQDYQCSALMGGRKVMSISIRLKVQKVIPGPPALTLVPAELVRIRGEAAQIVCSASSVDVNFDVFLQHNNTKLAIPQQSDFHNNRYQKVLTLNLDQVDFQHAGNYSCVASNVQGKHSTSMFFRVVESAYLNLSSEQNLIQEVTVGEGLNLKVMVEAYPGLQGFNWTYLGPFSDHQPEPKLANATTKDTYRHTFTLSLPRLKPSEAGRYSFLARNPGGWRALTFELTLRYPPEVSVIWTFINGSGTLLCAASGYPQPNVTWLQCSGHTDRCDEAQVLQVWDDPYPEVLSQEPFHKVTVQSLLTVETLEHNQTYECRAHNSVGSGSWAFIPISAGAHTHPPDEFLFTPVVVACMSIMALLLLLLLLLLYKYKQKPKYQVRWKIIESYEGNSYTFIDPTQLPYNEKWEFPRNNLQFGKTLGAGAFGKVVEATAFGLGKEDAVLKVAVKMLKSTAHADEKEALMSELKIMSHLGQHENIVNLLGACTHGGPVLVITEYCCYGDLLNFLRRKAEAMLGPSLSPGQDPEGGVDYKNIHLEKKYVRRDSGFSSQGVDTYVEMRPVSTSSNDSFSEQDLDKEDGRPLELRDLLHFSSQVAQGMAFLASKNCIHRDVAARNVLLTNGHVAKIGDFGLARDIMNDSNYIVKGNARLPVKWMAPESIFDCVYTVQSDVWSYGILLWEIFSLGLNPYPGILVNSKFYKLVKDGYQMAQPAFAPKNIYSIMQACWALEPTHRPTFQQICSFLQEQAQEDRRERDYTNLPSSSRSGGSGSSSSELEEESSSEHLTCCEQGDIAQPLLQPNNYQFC
Sequence of Casein kinase I isoform alpha (Homo sapiens) (P48729 2-337 limits assumed): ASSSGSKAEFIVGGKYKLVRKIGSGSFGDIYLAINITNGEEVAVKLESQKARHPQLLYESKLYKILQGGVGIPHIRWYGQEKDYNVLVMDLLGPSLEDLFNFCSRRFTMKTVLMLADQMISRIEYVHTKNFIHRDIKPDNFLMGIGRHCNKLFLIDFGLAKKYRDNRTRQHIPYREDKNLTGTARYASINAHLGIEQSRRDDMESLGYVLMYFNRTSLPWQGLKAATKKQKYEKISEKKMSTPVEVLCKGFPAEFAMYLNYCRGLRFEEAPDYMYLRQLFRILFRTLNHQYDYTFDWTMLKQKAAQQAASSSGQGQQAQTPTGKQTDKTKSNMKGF
Sequence of Mitogen-activated protein kinase kinase kinase 14 (Homo sapiens) (Q99558 whole entry, looked up): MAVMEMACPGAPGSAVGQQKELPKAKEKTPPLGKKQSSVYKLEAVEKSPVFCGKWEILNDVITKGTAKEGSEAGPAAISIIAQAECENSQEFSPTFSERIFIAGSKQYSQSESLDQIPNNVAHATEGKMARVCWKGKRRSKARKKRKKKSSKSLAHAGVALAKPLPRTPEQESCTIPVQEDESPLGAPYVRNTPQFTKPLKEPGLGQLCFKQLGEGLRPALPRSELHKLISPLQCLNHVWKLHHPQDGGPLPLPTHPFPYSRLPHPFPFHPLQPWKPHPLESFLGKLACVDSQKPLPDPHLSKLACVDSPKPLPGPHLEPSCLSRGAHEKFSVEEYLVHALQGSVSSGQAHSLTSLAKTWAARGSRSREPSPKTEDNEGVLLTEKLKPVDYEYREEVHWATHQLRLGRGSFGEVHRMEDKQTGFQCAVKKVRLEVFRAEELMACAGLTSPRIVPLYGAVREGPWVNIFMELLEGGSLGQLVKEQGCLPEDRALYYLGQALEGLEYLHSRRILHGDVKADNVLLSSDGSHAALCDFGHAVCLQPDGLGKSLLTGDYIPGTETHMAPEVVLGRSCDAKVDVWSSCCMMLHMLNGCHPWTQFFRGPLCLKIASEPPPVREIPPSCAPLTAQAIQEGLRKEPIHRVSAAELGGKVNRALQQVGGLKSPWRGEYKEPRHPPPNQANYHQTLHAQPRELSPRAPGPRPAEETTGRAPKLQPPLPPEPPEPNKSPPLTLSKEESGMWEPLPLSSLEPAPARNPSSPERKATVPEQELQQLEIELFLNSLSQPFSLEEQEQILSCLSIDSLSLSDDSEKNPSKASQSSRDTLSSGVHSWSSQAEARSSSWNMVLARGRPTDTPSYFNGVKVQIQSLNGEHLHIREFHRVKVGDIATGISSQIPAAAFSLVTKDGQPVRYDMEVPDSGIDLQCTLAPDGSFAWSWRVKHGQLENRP
Sequence of Serine/threonine-protein kinase PAK 6 (Homo sapiens) (Q9NQU5 whole entry, looked up): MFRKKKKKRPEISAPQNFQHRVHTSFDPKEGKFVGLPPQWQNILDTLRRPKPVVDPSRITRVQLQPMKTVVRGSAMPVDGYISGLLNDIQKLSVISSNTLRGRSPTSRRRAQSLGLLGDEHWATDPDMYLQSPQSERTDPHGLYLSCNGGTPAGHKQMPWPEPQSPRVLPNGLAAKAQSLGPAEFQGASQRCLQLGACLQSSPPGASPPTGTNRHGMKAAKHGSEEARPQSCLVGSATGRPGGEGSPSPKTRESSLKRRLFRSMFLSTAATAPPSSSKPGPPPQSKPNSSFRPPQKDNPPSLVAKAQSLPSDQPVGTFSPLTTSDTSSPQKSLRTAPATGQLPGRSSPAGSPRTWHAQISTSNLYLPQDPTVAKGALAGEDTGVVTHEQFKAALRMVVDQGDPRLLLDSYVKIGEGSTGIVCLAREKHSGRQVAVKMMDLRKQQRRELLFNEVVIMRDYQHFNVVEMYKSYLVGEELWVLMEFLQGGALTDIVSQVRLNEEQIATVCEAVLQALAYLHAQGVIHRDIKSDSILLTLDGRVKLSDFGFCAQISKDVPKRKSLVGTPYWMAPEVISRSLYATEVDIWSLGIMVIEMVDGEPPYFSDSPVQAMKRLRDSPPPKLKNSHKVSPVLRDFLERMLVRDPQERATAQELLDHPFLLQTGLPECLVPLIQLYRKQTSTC

On to `COc1cc2c(Oc3ccc(-c4nc5ccccc5s4)cc3)ncnc2cc1OCCCN1CCCC1`, for which the residual activity in assay [1] came to 131%; in assay [2], 95%; in assay [3] it was 99%; in assay [4], 93%; in assay [5], 96%; in [6], 51%. The residual activity amounted to 102% in assay [7], 98% in assay [8], 101% in assay [9] and 92% in assay [10].

As for `COc1cc2c(Oc3ccc(-c4nc5ccccc5s4)cc3F)ncnc2cc1OCCCN1CCN(C)CC1`, the residual activity in assay [1] worked out at 55%; in assay [2], 89%; in [3] it was 98%; in assay [4], 88%; in assay [5], 103%; in assay [6], 46%. For the same compound, the residual activity in assay [7] was determined as 103%; in [8], 103%; in [9], 79%; in assay [10], 96%.

On to `COc1cc2c(Oc3ccc(-c4nc5ccccc5s4)cc3)ncnc2cc1OCCCN1CCN(C)CC1`, for which the residual activity is 127% in [1]; 95% in assay [2]; 69% in assay [3]; 85% in assay [4]; 106% in [5]; 44% in assay [6]. Also, the residual activity in assay [7] is 99%; in assay [8], 102%; in assay [9] it was 87%; in [10], 91%.
